Measured values: ChEMBL document CHEMBL5046315, “CRCM5484: A BET-BDII Selective Compound with Differential Anti-leukemic Drug Modulation” (J Med Chem, 2022)
Calls of active or inactive are those of the source. The rule behind the calls is not given here.

Assays:
CCRF-CEM [1] = test: Potentiation of panobinostat-induced antileukemic activity against human CCRF-CEM cells at 4.3 uM in presence of bone-marrow derived stromal cell-conditioned medium; assay type: functional, cell-based
MOLM-14 [2] = test: Potentiation of luminespid-induced antileukemic activity against human MOLM-14 cells at 4.3 uM in presence of bone-marrow derived stromal cell-conditioned medium; assay type: functional, cell-based
MOLM-14 [3] = test: Potentiation of SGI-1776-induced antileukemic activity against human MOLM-14 cells at 4.3 uM in presence of bone-marrow derived stromal cell-conditioned medium; assay type: functional, cell-based
CCRF-CEM [4] = test: Potentiation of palbociclib-induced antileukemic activity against human CCRF-CEM cells at 4.3 uM in presence of bone-marrow derived stromal cell-conditioned medium; assay type: functional, cell-based
MOLM-14 [5] = test: Potentiation of AC-4-130-induced antileukemic activity against human MOLM-14 cells at 4.3 uM in presence of bone-marrow derived stromal cell-conditioned medium; assay type: functional, cell-based
U-937 [6] = test: Potentiation of ruxolitinib-induced antileukemic activity against human U-937 cells at 4.3 uM in presence of bone-marrow derived stromal cell-conditioned medium; assay type: functional, cell-based
CCRF-CEM [7] = test: Potentiation of MK2206-induced antileukemic activity against human CCRF-CEM cells at 4.3 uM in presence of bone-marrow derived stromal cell-conditioned medium; assay type: functional, cell-based
MOLM-14 [8] = test: Potentiation of quizartinib-induced antileukemic activity against human MOLM-14 cells at 4.3 uM in presence of bone-marrow derived stromal cell-conditioned medium; assay type: functional, cell-based
CCRF-CEM [9] = test: Potentiation of azacitidine-induced antileukemic activity against human CCRF-CEM cells at 4.3 uM in presence of bone-marrow derived stromal cell-conditioned medium; assay type: functional, cell-based
[10] = molecular target: T1, Bromodomain-containing protein 3 (Homo sapiens, UniProt Q15059); test: Inhibition of human partial length BRD3-BD2 (G306 to P416 residues) expressed in bacterial system at 1 uM by BROMOscan method relative to control
Target sequence in this assay (Q15059 2-726 limits assumed): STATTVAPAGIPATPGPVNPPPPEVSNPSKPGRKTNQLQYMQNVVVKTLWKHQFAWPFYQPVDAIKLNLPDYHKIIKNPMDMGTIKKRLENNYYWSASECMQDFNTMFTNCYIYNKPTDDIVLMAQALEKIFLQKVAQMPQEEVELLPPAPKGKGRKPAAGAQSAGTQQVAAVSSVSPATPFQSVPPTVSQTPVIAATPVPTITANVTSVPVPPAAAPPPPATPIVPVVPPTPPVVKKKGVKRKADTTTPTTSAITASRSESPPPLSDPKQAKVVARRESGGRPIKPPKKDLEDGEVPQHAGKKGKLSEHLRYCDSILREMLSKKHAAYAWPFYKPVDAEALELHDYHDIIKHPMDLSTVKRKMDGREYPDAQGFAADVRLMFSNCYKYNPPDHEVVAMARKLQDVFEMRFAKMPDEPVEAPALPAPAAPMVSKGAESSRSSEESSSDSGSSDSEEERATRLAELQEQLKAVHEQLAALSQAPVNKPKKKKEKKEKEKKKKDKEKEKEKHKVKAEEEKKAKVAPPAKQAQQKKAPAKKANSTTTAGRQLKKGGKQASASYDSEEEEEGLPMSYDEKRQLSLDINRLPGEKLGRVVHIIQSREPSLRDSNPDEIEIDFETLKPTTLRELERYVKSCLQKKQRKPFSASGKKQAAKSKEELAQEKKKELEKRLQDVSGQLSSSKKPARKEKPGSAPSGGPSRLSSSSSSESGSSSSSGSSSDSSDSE

CCRF-CEM [11] = test: Potentiation of ruxolitinib-induced antileukemic activity against human CCRF-CEM cells at 4.3 uM in presence of bone-marrow derived stromal cell-conditioned medium; assay type: functional, cell-based
MOLM-14 [12] = test: Potentiation of birinapant-induced antileukemic activity against human MOLM-14 cells at 4.3 uM in presence of bone-marrow derived stromal cell-conditioned medium; assay type: functional, cell-based
K562 = test: Cytotoxicity against human K562 cells assessed as reduction in cell viability incubated for 72 hrs; assay type: functional, cell-based; settings: K562, 72 h
MOLM-14 [13] = test: Potentiation of rigosertib-induced antileukemic activity against human MOLM-14 cells at 4.3 uM in presence of bone-marrow derived stromal cell-conditioned medium; assay type: functional, cell-based
U-937 [14] = test: Potentiation of niotinib-induced antileukemic activity against human U-937 cells at 4.3 uM in presence of bone-marrow derived stromal cell-conditioned medium; assay type: functional, cell-based
U-937 [15] = test: Potentiation of palbociclib-induced antileukemic activity against human U-937 cells at 4.3 uM in presence of bone-marrow derived stromal cell-conditioned medium; assay type: functional, cell-based
U-937 [16] = test: Potentiation of tipifarnib-induced antileukemic activity against human U-937 cells at 4.3 uM in presence of bone-marrow derived stromal cell-conditioned medium; assay type: functional, cell-based
CCRF-CEM [17] = test: Potentiation of docetaxel-induced antileukemic activity against human CCRF-CEM cells at 4.3 uM in presence of bone-marrow derived stromal cell-conditioned medium; assay type: functional, cell-based
U-937 [18] = test: Potentiation of OTX015-induced antileukemic activity against human U-937 cells at 4.3 uM in presence of bone-marrow derived stromal cell-conditioned medium; assay type: functional, cell-based
CCRF-CEM [19] = test: Potentiation of idasanutlin-induced antileukemic activity against human CCRF-CEM cells at 4.3 uM in presence of bone-marrow derived stromal cell-conditioned medium; assay type: functional, cell-based
CCRF-CEM [20] = test: Potentiation of idelalisib-induced antileukemic activity against human CCRF-CEM cells at 4.3 uM in presence of bone-marrow derived stromal cell-conditioned medium; assay type: functional, cell-based
MOLM-14 [21] = test: Potentiation of MK2206-induced antileukemic activity against human MOLM-14 cells at 4.3 uM in presence of bone-marrow derived stromal cell-conditioned medium; assay type: functional, cell-based
MOLM-14 [22] = test: Potentiation of cladribine-induced antileukemic activity against human MOLM-14 cells at 4.3 uM in presence of bone-marrow derived stromal cell-conditioned medium; assay type: functional, cell-based
CCRF-CEM [23] = test: Potentiation of asparaginase-induced antileukemic activity against human CCRF-CEM cells at 4.3 uM in presence of bone-marrow derived stromal cell-conditioned medium; assay type: functional, cell-based
[24] = molecular target: T1, Bromodomain-containing protein 3; test: Inhibition of BRD3-BD2 (unknown origin) assessed as dissociation constant by ITC method
Target sequence in this assay (Q15059 whole entry, the tested form may be a part): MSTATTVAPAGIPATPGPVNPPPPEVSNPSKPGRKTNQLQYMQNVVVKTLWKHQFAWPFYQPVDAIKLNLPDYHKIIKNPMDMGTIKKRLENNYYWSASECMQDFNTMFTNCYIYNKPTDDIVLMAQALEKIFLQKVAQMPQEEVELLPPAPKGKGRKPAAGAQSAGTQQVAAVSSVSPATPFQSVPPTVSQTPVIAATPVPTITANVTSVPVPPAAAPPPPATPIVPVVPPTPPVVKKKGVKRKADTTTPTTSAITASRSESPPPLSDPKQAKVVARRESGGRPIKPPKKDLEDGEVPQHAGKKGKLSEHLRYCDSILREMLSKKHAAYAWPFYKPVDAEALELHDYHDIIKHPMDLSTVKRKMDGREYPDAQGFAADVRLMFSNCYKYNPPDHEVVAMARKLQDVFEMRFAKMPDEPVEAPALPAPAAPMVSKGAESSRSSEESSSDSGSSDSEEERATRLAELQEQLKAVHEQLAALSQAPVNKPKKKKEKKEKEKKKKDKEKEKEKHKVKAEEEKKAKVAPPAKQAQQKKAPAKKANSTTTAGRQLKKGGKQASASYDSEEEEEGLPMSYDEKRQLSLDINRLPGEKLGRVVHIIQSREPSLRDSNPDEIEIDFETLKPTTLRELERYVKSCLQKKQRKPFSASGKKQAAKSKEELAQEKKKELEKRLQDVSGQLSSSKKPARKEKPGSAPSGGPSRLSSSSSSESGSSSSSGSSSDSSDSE

CCRF-CEM [25] = test: Potentiation of prima1-induced antileukemic activity against human CCRF-CEM cells at 4.3 uM in presence of bone-marrow derived stromal cell-conditioned medium; assay type: functional, cell-based
MOLM-14 [26] = test: Potentiation of docetaxel-induced antileukemic activity against human MOLM-14 cells at 4.3 uM in presence of bone-marrow derived stromal cell-conditioned medium; assay type: functional, cell-based
MOLM-14 [27] = test: Downregulation of Myc expression in human MOLM-14 cells incubated for 2 hrs by RT-PCR analysis; assay type: functional, cell-based; settings: dose 5.0 µM
MOLM-14 [28] = test: Potentiation of AGI-5198-induced antileukemic activity against human MOLM-14 cells at 4.3 uM in presence of bone-marrow derived stromal cell-conditioned medium; assay type: functional, cell-based
MOLM-14 [29] = test: Potentiation of gileritinib-induced antileukemic activity against human MOLM-14 cells at 4.3 uM in presence of bone-marrow derived stromal cell-conditioned medium; assay type: functional, cell-based
CCRF-CEM [30] = test: Potentiation of VX680-induced antileukemic activity against human CCRF-CEM cells at 4.3 uM in presence of bone-marrow derived stromal cell-conditioned medium; assay type: functional, cell-based
U-937 [31] = test: Potentiation of clofarabine-induced antileukemic activity against human U-937 cells at 4.3 uM in presence of bone-marrow derived stromal cell-conditioned medium; assay type: functional, cell-based
CCRF-CEM [32] = test: Potentiation of gileritinib-induced antileukemic activity against human CCRF-CEM cells at 4.3 uM in presence of bone-marrow derived stromal cell-conditioned medium; assay type: functional, cell-based
CCRF-CEM [33] = test: Potentiation of -mastinib -induced antileukemic activity against human CCRF-CEM cells at 4.3 uM in presence of bone-marrow derived stromal cell-conditioned medium; assay type: functional, cell-based
[34] = molecular target: T1, Bromodomain-containing protein 3; test: Inhibition of BRD3-BD2 (unknown origin) incubated for 6 hrs by HTRF method
Target sequence in this assay (Q15059 whole entry, the tested form may be a part): as above

CC(=O)N1CCc2c(sc3nc(SCC(=O)Nc4cccnc4C)n(Cc4ccco4)c(=O)c23)C1
Activity (CCRF-CEM [1]): inactive
Activity (MOLM-14 [2]): inactive
Activity (MOLM-14 [3]): inactive
Activity (CCRF-CEM [4]): inactive
Activity (MOLM-14 [5]): inactive
Activity (U-937 [6]): inactive
Activity (CCRF-CEM [7]): inactive
Activity (MOLM-14 [8]): inactive
Activity (CCRF-CEM [9]): inactive
inhibition [10]: 36%
Activity (CCRF-CEM [11]): inactive
Activity (MOLM-14 [12]): inactive
EC50 (K562): > 5000 nM
Activity (MOLM-14 [13]): inactive
Activity (U-937 [14]): inactive
Activity (U-937 [15]): inactive
Activity (U-937 [16]): inactive
Activity (CCRF-CEM [17]): inactive
Activity (U-937 [18]): inactive
Activity (CCRF-CEM [19]): inactive
Activity (CCRF-CEM [20]): inactive
Activity (MOLM-14 [21]): inactive
Activity (MOLM-14 [22]): inactive
Activity (CCRF-CEM [23]): inactive
Kd [24]: 150 nM
Activity (CCRF-CEM [25]): inactive
Activity (MOLM-14 [26]): inactive
Activity (MOLM-14 [27]): Dose-Dependent Effect
Activity (MOLM-14 [28]): inactive
Activity (MOLM-14 [29]): inactive
Activity (CCRF-CEM [30]): inactive
Activity (U-937 [31]): inactive
Activity (CCRF-CEM [32]): inactive
Activity (CCRF-CEM [33]): inactive
IC50 [34]: 20 nM
